Results taken from patent US12583893B2, “Use of esculentin and its derivatives for use in the treatment of cystic fibrosis” (UNIVERSITÀ DEGLI STUDI DI ROMA LA SAPIENZA, priority 2019, dated 2026).
“Also recorded” adds a separate entry of the source. Square brackets hold non-standard residues; d marks the D form. Ends that are not written are not given here. d(pS) = N[C@H](COP(=O)(O)O)C(=O)O

What was measured:
[1] = biological target: T1, F508del CFTR (Homo sapiens, UniProt P13569, DEL508-508); assay: Trans-epithelial electrical conductance in del508-FRT cells, position-17 analogs; type: cell-based; parameters: expressed in transfected cells; conditions: 10 min treatment with 10 μM peptide tested as potentiator (instead of genistein)
T1 sequence (P13569 with tags, fused parts or gaps DEL508-508): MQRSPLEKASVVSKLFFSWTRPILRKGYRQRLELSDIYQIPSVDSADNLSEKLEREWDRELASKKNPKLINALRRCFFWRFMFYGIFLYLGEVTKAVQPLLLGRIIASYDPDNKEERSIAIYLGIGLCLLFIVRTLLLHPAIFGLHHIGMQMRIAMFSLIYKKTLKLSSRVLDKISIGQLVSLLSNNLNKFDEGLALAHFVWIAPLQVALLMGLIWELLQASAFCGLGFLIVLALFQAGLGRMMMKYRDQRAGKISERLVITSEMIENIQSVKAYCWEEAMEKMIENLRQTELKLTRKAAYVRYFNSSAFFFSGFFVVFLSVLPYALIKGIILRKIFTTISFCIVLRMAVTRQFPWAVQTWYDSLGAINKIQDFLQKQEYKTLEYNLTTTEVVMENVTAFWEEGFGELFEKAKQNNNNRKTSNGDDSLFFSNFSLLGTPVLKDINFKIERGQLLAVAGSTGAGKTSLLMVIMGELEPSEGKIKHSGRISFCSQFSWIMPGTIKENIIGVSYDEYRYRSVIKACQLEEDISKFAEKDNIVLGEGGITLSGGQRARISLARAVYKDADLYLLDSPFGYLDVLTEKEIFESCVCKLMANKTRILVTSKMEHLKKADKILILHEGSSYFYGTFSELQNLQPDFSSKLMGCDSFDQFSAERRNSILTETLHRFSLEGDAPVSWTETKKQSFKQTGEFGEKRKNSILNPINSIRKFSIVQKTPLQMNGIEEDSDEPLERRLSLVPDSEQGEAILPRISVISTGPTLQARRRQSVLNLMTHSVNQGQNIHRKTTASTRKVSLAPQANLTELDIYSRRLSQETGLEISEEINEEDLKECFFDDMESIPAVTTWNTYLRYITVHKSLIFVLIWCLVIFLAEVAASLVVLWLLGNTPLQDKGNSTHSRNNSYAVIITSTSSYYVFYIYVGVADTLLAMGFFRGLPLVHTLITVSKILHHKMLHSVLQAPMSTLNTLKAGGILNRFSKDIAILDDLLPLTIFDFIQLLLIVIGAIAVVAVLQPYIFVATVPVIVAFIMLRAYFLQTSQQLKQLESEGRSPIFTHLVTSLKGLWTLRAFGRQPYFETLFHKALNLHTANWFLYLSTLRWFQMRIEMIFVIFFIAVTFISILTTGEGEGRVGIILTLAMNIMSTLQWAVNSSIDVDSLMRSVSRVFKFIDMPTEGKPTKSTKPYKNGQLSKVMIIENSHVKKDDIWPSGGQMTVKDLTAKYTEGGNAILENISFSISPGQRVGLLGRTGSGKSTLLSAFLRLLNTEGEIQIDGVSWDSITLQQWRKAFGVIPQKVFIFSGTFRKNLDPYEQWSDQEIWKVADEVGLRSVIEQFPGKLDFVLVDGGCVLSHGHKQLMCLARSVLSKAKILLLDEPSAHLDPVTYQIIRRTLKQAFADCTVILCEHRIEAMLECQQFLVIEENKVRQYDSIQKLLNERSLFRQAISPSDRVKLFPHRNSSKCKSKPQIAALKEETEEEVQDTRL
Source text: To understand whether the potentiator effect of Esc peptides was specifically dependent on their sequence and/or correlated to the presence of Ser17, eventually upon its phosphorylation by PKA, a series of peptide analogs bearing different L/D amino acids at position 17 were synthesized, the analogs are presented in the following table 1. The analogs were used to measure the trans-epithelial electrical conductance in […] Rat Thyroid cells, which is a cell line frequently used for functional studies and stably expressing F508del-CFTR (del508-FRT). Among them, compounds 3 and 5 carrying L and D-Alanine, respectively; compound 6 carrying the achiral Glycine17; compounds 7 and 8, with another potential target amino acid of protein kinases i.e. D and L-threonine respectively; and compounds 9 ad 10 where Ser17 was replaced by a residue with a bulky side chain, i.e. D and L tryptophan, respectively. Furthermore, an analog with L-phosphoserine at position 17 were included for comparison.

[2] = test system: Pseudomonas aeruginosa; conditions: cited from earlier work
[3] = test system: wt-CFBE; conditions: compared with Esc(1-21); cited from earlier work
[4] = test system: P. aeruginosa biofilm; conditions: compared with Esc(1-21); cited from earlier work
[5] = test system: Pseudomonas; conditions: single intra-tracheal instillation, cited from earlier work
[6] = test system: F508del-CFBE; conditions: compared with Esc(1-21); cited from earlier work
[7] = biological target: T1, F508del CFTR; assay: CFTR-dependent trans-epithelial conductance by TEER in F508del-CFBE pre-incubated with Vx-809; type: cell-based; parameters: expressed in transfected cells; host or cells: CFBE41o- human bronchial epithelial cells, lentiviral transduction (F508del-CFBE); conditions: for CFTR conductance: 10 μM peptide + 20 μM FSK without GEN, 10 min, pre-incubated 24 h with 1 μM Vx-809
Method: In parallel, to evaluate CFTR activation, the same saline solution was used. After measurement of basal TEER, 20 μM FSK+50 μM GEN as positive control, or FSK+ peptides at the desired concentration were added on the epithelium apical side. Finally, 30 μM PPQ102, a specific inhibitor of CFTR, was added on the epithelium apical side. After each addition, we waited ten minutes at 37° C. before measurement. From the values of TEER measured before and after CFTR inhibition, we calculated the CFTR-dependent trans-epithelial conductance for each condition [Sondo E, Falchi F, Caci E, Ferrera L, Giacomini E, Pesce E, Tomati V, Mandrup Bertozzi S, Goldoni L, Armirotti A, Ravazzolo R, Cavalli A, Pedemonte N (2018) Pharmacological Inhibition of the Ubiquitin Ligase RNF5 Rescues F508del-CFTR in Cystic Fibrosis Airway Epithelia. Cell Chem Biol 25, 891-905 e898].
Subsequently, was investigated the ability of Esc peptides to act as potentiators of mutated CFTR, by promoting its phosphorylation state or its channel opening time, mimicking the activity of forskolin (FSK) or genistein (GEN), respectively, which are both needed for full activation of CFTR [Sondo E, Falchi F, Caci E, Ferrera L, Giacomini E, Pesce E, Tomati V, Mandrup Bertozzi S, Goldoni L, Armirotti A, Ravazzolo R, Cavalli A, Pedemonte N (2018) Pharmacological Inhibition of the Ubiquitin Ligase RNF5 Rescues F508del-CFTR in Cystic Fibrosis Airway Epithelia. Cell Chem Biol 25, 891-905 e898]. Noteworthy, the adenylate cyclase activator FSK [Ma T, Thiagarajah J R, Yang H, Sonawane N D, Folli C, Galietta L J, Verkman A S (2002) Thiazolidinone CFTR inhibitor identified by high-throughput screening blocks cholera toxin-induced intestinal fluid secretion. J Clin Invest 110, 1651-1658] is reported to trigger an increase of intracellular cAMP favouring CFTR phosphorylation by cellular protein kinases e.g. PKA, while the isoflavone GEN accelerates channel opening, by promoting NBD dimerization, and slows channel closure by stabilizing the NBD1:NBD2 dimer conformation [Schmidt A, Hughes L K, Cai Z, Mendes F, Li H, Sheppard D N, Amaral M D (2008) Prolonged treatment of cells with genistein modulates the expression and function of the cystic fibrosis transmembrane conductance regulator. Br J Pharmacol 153, 1311-1323]. The CFTR-mediated conductance of bronchial epithelium was evaluated by TEER, after 10 min, 1 h and 2 h treatment of F508del-CFBE (pre-incubated with the corrector Vx-809 in order to trigger the mutated protein to the apical membrane) with Esc(1-21)-1c (10 μM), in the absence of FSK or GEN. […] This clearly denoted that the peptide was able to potentiate CFTR activity, likely by prolonging its channel opening time.
The conductance was then measured on F508del-CFBE. […]

[8] = biological target: T1, F508del CFTR; assay: Ussing chamber short-circuit current on bronchial epithelia from homozygous F508del patient; type: cell-based; parameters: Ussing chamber experiments on bronchial epithelia from homozygous F508del patient; host or cells: primary human bronchial epithelial cells from a CF patient homozygous for F508del; conditions: epithelia incubated 24 h with 1 μM Vx-809, then amiloride, cpt-cAMP and potentiator
Method: Snapwell inserts (Corning 3801) carrying differentiated bronchial epithelia were mounted in a vertical diffusion chamber, resembling a Ussing chamber with internal fluid circulation. Both apical and basolateral chambers were filled with 5 ml of saline solution. The short-circuit current was recorded with a PowerLab 4/25 (ADInstruments) analog-to-digital converter connected to a computer. Epithelia were incubated for 24 h with 1 μM Vx-809 or 0.1% DMSO. Afterwards, 10 μM amiloride was added; subsequently, CFTR channels were activated by phosphorylation upon addition of 100 μM cpt-cAMP (permeable cAMP analog). Then, 1 μM of the potentiator Vx-770 as well as each Esc peptide was added on the epithelium apical side, as indicated. Finally, 10 μM Inh172, a specific inhibitor of CFTR was added to the epithelium apical side. Measurements were done after 5 min from the addition of each substance. In parallel, epithelia pre-incubated for 24 h with each peptide and then treated with amiloride, cpt-cAMP and Vx-770 were used for comparison.
The CFTR potentiating activity of Esc peptides in primary airway epithelial cells was studied by Ussing chamber experiments on bronchial epithelia from homozygous F508del patient. Epithelia were treated for 24 h with 0.1% DMSO vehicle alone, 1 μM Vx809 or with each Esc peptide. […]

## Gly-Ile-Phe-Ser-Lys-Leu-Ala-Gly-Lys-Lys-Ile-Lys-Asn-dLeu-Leu-Ile-dphosphoSer-Gly-Leu-Lys-Gly-NH2 (GIFSKLAGKKIKN[dL]LI[d(pS)]GLKG-NH2; N-terminus assumed; SMILES CC[C@H](C)[C@H](NC(=O)CN)C(=O)N[C@@H](Cc1ccccc1)C(=O)N[C@@H](CO)C(=O)N[C@@H](CCCCN)C(=O)N[C@@H](CC(C)C)C(=O)N[C@@H](C)C(=O)NCC(=O)N[C@@H](CCCCN)C(=O)N[C@@H](CCCCN)C(=O)N[C@H](C(=O)N[C@@H](CCCCN)C(=O)N[C@@H](CC(N)=O)C(=O)N[C@H](CC(C)C)C(=O)N[C@@H](CC(C)C)C(=O)N[C@H](C(=O)N[C@H](COP(=O)(O)O)C(=O)NCC(=O)N[C@@H](CC(C)C)C(=O)N[C@@H](CCCCN)C(=O)NCC(N)=O)[C@@H](C)CC)[C@@H](C)CC) [compound 2, carrying D-phosphoSer at position 17]
[1]
  transepithelial conductance (function of F508del-CFTR): significantly increase; also recorded: higher than that of genistein

## GIFSKLAGKKIKNLLISGLKG-NH2 [Esc(1-21), first 20 amino acids of Esculentin 1a with a glycinamide residue at the C-terminus]
[2]
  antipseudomonal activity: potent antipseudomonal activity

## Gly-Ile-Phe-Ser-Lys-Leu-Ala-Gly-Lys-Lys-Ile-Lys-Asn-dLeu-Leu-Ile-dSer-Gly-Leu-Lys-Gly-NH2 (GIFSKLAGKKIKN[dL]LI[dS]GLKG-NH2) [Esc(1-21)-1c, diastereomer of Esc(1-21) with two D-amino acids]
[3]
  re-epithelialization of bronchial epithelial cells: more efficient to induce re-epithelialization
[4]
  activity against P. aeruginosa biofilm: more active against P. aeruginosa biofilm
[5]; 0.1 mg/kg corresponding to 20 μM, compared with Esc(1-21)
  reduction of lung bacterial burden: more potent in reducing lung bacterial burden
[5]; 0.1 mg/kg
  toxicity or inflammatory side events: negligible toxicity or inflammatory side events
[6]
  re-epithelialization of bronchial epithelial cells: more efficient to induce re-epithelialization
[7]
  CFTR conductance: significant increase of CFTR conductance
[7]; 10 μM peptide + FSK without GEN, 1 h or 2 h treatment, pre-incubated with Vx-809
  potentiator activity (CFTR conductance) over time: remain constant up to 2 h
[7]; 10 μM peptide in the absence of FSK, pre-incubated with Vx-809
  CFTR-mediated conductance (rescue of CFTR activity): no rescue of CFTR activity

## temporin A [reference compound]
[7]
  CFTR conductance: no effect on CFTR currents

## CC(C)(C)c1cc(C(C)(C)C)c(NC(=O)c2c[nH]c3ccccc3c2=O)cc1O [Vx-770]
[8]
  CFTR-mediated current as potentiator: significant current increase
